From US7285567B2, “Halogenated benzamide derivatives” (Romark Laboratories, L.C., priority 2005, dated 2007)
≈ marks a conversion by molar mass, not a printed value. Like-named read-outs stand apart in the source and are kept apart here.

Legend:
[1] = system: anaerobic Gram positive cocci; assay: CLSI agar dilution MIC, anaerobic clinical isolates; type: cell-based; settings: Gram + cocci (16 isolates), 48 h
[2] = system: anaerobic Gram-positive non-sporeforming rods; assay: as above; type: cell-based; settings: Gram + rods (14 isolates), 48 h
[3] = system: clostridia; assay: organism not typed; type: cell-based; settings: 48 h
[4] = system: B. fragilis group; assay: CLSI agar dilution MIC, anaerobic clinical isolates; type: cell-based; settings: Bacteroides fragilis, B. fragilis gp (40 isolates), 48 h, 35° C.
Description: (§1) Methods. Recent clinical anaerobic isolates (2000 to date) comprised 40 B. fragilis group, 26 Prevotella/Porphyromonas, 28 fusobacteria, 16 anaerobic Gram positive cocci, 14 anaerobic Gram-positive non-sporeforming rods and 18 clostridia. CLSI agar dilution MIC methodology with enriched Brucella blood agar and inocula of 1×10^5 cfu/spot was used. Plates were incubated in an anaerobic glove box at 35° C. for 48 h. Results.

[5] = system: fusobacteria; assay: as above; type: cell-based; settings: Fusobacteria (28 isolates), 48 h
Description: as §1

[6] = system: Prevotella/Porphyromonas; assay: as above; type: cell-based; settings: Prev/Porphy (26 isolates), 48 h
Description: as §1

[7] = system: anaerobic bacteria (all 142 isolates); assay: CLSI agar dilution MIC, all anaerobic clinical isolates; type: cell-based; settings: for MIC50 / MIC90: All (142 isolates), agar dilution, 48 h; for Activity against anaerobic bacteria groups (summary in words): summary of MIC results
[8] = Cytotoxicity in 2.2.15 cells (neutral red dye uptake); type: cell-based; settings: human, 2-fold depression of neutral red dye uptake
Description: (§2) Anti-Hepatitis B Virus (HBV) analyses and an assessment of cytotoxicity were performed in a 9-day assay in the chronically-producing HBV human hepatoblastoma cell line, 2.2.15, as previously described (Korba, B. E. & Gerin, J. L. Use of a standardized cell culture assay to assess activities of nucleosides analogues against hepatitis B virus replication. Antivir. Res. 19, 55-70 (1992)).
(§3) Values presented (±standard deviations [S.D.]) were calculated by linear regression analysis using data combined from all treated cultures. S.D. were calculated using the standard error of regression generated from linear regression analyses (QuattroPro™). EC50, EC90=drug concentration at which a 2-fold, or a 10-fold depression of HBV DNA (relative to the average levels in untreated cultures), respectively, was observed, CC50=drug concentration at which a 2-fold depression of neutral red dye uptake (relative to the average levels in untreated cultures) was observed, The EC90 values were used for the calculation of the Selectivity Indexes [S.I.] since at least a 3-fold depression of HBV levels is typically required to achieve statistical significance in this assay system. HBV R.I.=intracellular HBV DNA replication intermediate.

[9] = system: Hepatitis B Virus (HBV); assay: HBV replication in 2.2.15 cell culture, 9-day assay; type: cell-based; settings: for EC50 / EC90: Hepatitis B virus
Description: as §2, §3

[10] = system: H3N2 influenza virus, type A; assay: Multiple cycle CPE inhibition assay on MDCK cell monolayers; type: cell-based; settings: 0% EMEM + Hepes + Trypsin
Description: (§4) EC50 (μg/mL) values for 2-(acetolyloxy)-3-methyl-N-(5-bromo-2-thiazolyl)benzamide (RM4803), 2-(acetolyloxy)-3-methyl-N-(5-chloro-2-thiazolyl)benzamide (RM4804), and 2-(acetolyloxy)-3-methoxy-N-(5-bromo-2-thiazolyl)benzamide (RM4806), on Human Rhinovirus Type 39 (HRV-39), and H3N2 influenza virus, type A, using a multiple cycle CPE inhibition assay on OH-I Hela and Madin Darby Canine Kidney (MDCK) cell monolayers, respectively, were measured by microscopic and spectrophotometric methods. Pirodavir and Oseltamivir were included as positive controls.

[11] = system: Human Rhinovirus Type 39 (HRV-39); assay: Multiple cycle CPE inhibition assay on OH-I Hela cell monolayers; type: cell-based; settings: Rhinovirus A, HRV39, HRV-39, OH-Hela, 2% McCoys + Hepes Buffer
Description: as §4

[12] = system: Trypanosoma brucei; assay: Antiparasite test by conventional means; type: cell-based; settings: at concentrations of at least 50 μg/mL
Description: (§5) The above identified compounds according to Formula (IV) were tested by conventional means against Trichomis vaginalis, Giardia Intestinalis, and Trypanosoma brucei.

[13] = system: Giardia intestinalis; assay: Antiparasite test by conventional means; type: cell-based; settings: at concentrations of at least 50 μg/mL
Description: as §5

[14] = system: Trichomonas vaginalis; assay: Antiparasite test by conventional means; type: cell-based; settings: at concentrations of at least 50 μg/mL
Description: as §5

[15] = system: Neospora spp.; assay: Efficacy against intracellular protozoa
[16] = system: Sarcocystis neurona; assay: Efficacy against intracellular protozoa
[17] = system: Paramyxovirus: Sendai virus; assay: microbe, parasite or virus in culture; type: cell-based; settings: Respirovirus muris; Sendai virus in cell culture (Table 2)
[18] = system: Cryptosporidium spp.; assay: Efficacy against intracellular protozoa
[19] = system: hepatitis C virus (HCV) replicon; assay: HCV replication in AVA5 replicon cell culture, 3-day assay; type: cell-based
Description: (§6) Anti-Hepatitis C Virus (HCV) analyses and an assessment of cytotoxicity were performed in a 3-day assay in the HCV replicon-containing human hepatoblastoma cell line, AVA5 (Okuse, C., Rinaudo, J. A., Farrar, K., Wells, F. & Korba, B. E. Enhancement of antiviral activity against hepatitis C virus in vitro by interferon combination therapy. Antivir. Res. 65, 23-34 (2005)) as previously described (Blight, K. J., Kolykhalov, A. A. & Rice, C. M. Efficient initiation of HCV RNA replication in cell culture. Science 290, 1972-1974 (2000)).
(§7) Values presented (±standard deviations [S.D.]) were calculated by linear regression analysis using data combined from all treated cultures. S.D. were calculated using the standard error of regression generated from the linear regression analyses (QuattroPro™). EC50, EC90=drug concentration at which a 2-fold, or a 10-fold depression of HCV RNA (relative to the average levels in untreated cultures), respectively, was observed. CC50=drug concentration at which a 2-fold depression of neutral red dye uptake was observed relative to the average levels in untreated cultures. Selectivity index=CC50/EC50.

[20] = Cytotoxicity in AVA5 cells (neutral red dye uptake); type: cell-based, human; settings: human, 2-fold depression of neutral red dye uptake
Description: as §6, §7

[21] = Clostridia (18 isolates), agar dilution, read-out: MIC50
[22] = microscopic reading, read-out: EC50, Microscopic
[23] = spectrophotometric reading, read-out: EC50, Spectrophotometer

CCC[C@@H]1C[C@@H](C(=O)N[C@@H]([C@H]2O[C@H](SC)[C@H](O)[C@@H](O)[C@H]2O)[C@H](C)Cl)N(C)C1 [Clindamycin]
MIC50 [1]: 0.125 µg/mL | MIC90 [1]: 0.5 µg/mL | MIC50 [2]: 0.125 µg/mL | MIC90 [2]: 4 µg/mL | MIC50 [3]: 1 µg/mL (≈ 2.35 µM) | MIC90 [3]: > 32 µg/mL | MIC50 [4]: 2 µg/mL (≈ 4.71 µM) | MIC90 [4]: > 32 µg/mL | MIC50 [5]: 0.06 µg/mL (≈ 0.141 µM) | MIC90 [5]: 0.125 µg/mL (≈ 0.294 µM) | MIC50 [6]: ≤ 0.015 µg/mL | MIC90 [6]: ≤ 0.015 µg/mL | MIC50 [7]: 0.125 µg/mL (≈ 0.294 µM) | MIC90 [7]: 8 µg/mL (≈ 18.8 µM)

Nc1ccn([C@@H]2CS[C@H](CO)O2)c(=O)n1 [Lamivudine, reference compound]
CC50 at 9 day [8]: 2230 ± 76 µM | EC50 ([9]; read-out: Extracellular Virion DNA EC50): 0.058 ± 0.006 µM | EC90 ([9]; read-out: Extracellular Virion DNA EC90): 0.164 ± 0.015 µM | EC50 ([9]; read-out: Intracellular HBV R.I. EC50): 0.172 ± 0.02 µM | EC90 ([9]; read-out: Intracellular HBV R.I. EC90): 0.66 ± 0.068 µM | Selectivity Index R.I. ([9]; calculated with EC90 values (CC50/EC90), HBV R.I.): 3377 | Selectivity Index Virion ([9]; calculated with EC90 values (CC50/EC90), virion DNA): 12959

Cc1ncc([N+](=O)[O-])n1CCO [Metronidazole]
MIC50 [1]: 0.5 µg/mL | MIC90 [1]: 1 µg/mL | MIC50 [2]: > 16 µg/mL | MIC90 [2]: > 16 µg/mL | MIC50 [4]: 1 µg/mL (≈ 5.84 µM) | MIC90 [4]: 2 µg/mL (≈ 11.7 µM) | MIC50 [5]: 0.25 µg/mL (≈ 1.46 µM) | MIC90 [5]: 0.25 µg/mL (≈ 1.46 µM) | MIC50 [6]: 0.5 µg/mL (≈ 2.92 µM) | MIC50 [7]: 1 µg/mL (≈ 5.84 µM) | MIC90 [7]: 2 µg/mL (≈ 11.7 µM)

CC(=O)Oc1ccccc1C(=O)Nc1ncc([N+](=O)[O-])s1 [Nitazoxanide, 2-(acetolyloxy)-N-(5-nitro-2-thiazolyl) benzamide]
MIC50 [1]: 0.5 µg/mL | MIC90 [1]: 2 µg/mL | MIC50 [2]: 16 µg/mL | MIC90 [2]: > 32 µg/mL | MIC50 [3, 21]: 0.5 µg/mL (≈ 1.63 µM) | MIC50 [4]: 2 µg/mL (≈ 6.51 µM) | MIC90 [4]: 4 µg/mL (≈ 13 µM) | MIC50 [5]: 1 µg/mL (≈ 3.25 µM) | MIC50 [6]: 4 µg/mL (≈ 13 µM) | MIC90 [6]: 8 µg/mL (≈ 26 µM) | MIC50 [7]: 2 µg/mL (≈ 6.51 µM) | MIC90 [7]: 4 µg/mL (≈ 13 µM) | Activity against anaerobic bacteria groups (summary in words) [7]: potent against all anaerobic bacteria groups except for Gram-positive anaerobic rods

CCOC(=O)C1=C[C@@H](OC(CC)CC)[C@H](NC(C)=O)[C@@H](N)C1 [Oseltamivir, reference compound]
EC50 [10, 22]: 0.13 to 0.17 µg/mL | EC50 [10, 23]: 0.08 to 0.36 µg/mL

CCOC(=O)c1ccc(OCCC2CCN(c3ccc(C)nn3)CC2)cc1 [Pirodavir, reference compound]
EC50 [11, 22]: 0.007 µg/mL | EC50 [11, 23]: 0.004 µg/mL

CC(=O)Oc1c(C)cccc1C(=O)Nc1ncc(Cl)s1 [RM-4804, 2-(acetolyloxy)-3-methyl-N-(5-chloro-2-thiazolyl)benzamide]
antiparasite activity [12]: failed to exhibit antiparasite activitity | antiparasite activity [13]: failed to exhibit antiparasite activitity | antiparasite activity [14]: failed to exhibit antiparasite activitity | EC50 [10, 22]: 0.93 µg/mL | EC50 [10, 23]: 0.57 µg/mL | EC50 [11, 22]: 0.57 µg/mL | EC50 [11, 23]: 0.32 µg/mL

COc1cccc(C(=O)Nc2ncc(Br)s2)c1OC(C)=O [RM-4806, 2-(acetolyloxy)-3-methoxy-N-(5-bromo-2-thiazolyl)benzamide]
antiparasite activity [12]: failed to exhibit antiparasite activitity | antiparasite activity [13]: failed to exhibit antiparasite activitity | antiparasite activity [14]: failed to exhibit antiparasite activitity | EC50 [10, 22]: 0.46 µg/mL | EC50 [10, 23]: 0.57 µg/mL | EC50 [11, 22]: 5 µg/mL | EC50 [11, 23]: 4 µg/mL

CC(=O)Oc1ccccc1C(=O)Nc1ncc(Br)s1 [RM-4820, 2-(acetolyloxy)-N-(5-bromo-2-thiazolyl)benzamide]
efficacy against intracellular protozoa [15]: effective | efficacy against intracellular protozoa [16]: effective | EC50 [17]: 0.34 µM | efficacy against intracellular protozoa [18]: effective

CC(=O)Oc1ccc(C)cc1C(=O)Nc1ncc(Br)s1 [RM-4821]
efficacy against intracellular protozoa [15]: effective | efficacy against intracellular protozoa [16]: effective | EC50 [17]: 0.36 µM | efficacy against intracellular protozoa [18]: effective

CC(=O)Oc1cc(C)ccc1C(=O)Nc1ncc(Br)s1 [RM-4822]
efficacy against intracellular protozoa [15]: effective | efficacy against intracellular protozoa [16]: effective | EC50 [17]: 0.36 µM | efficacy against intracellular protozoa [18]: effective

NC(=O)c1ncn([C@@H]2O[C@H](CO)[C@@H](O)[C@H]2O)n1 [Ribavirin, reference compound]
Selectivity Index ([19]; AVA5 cells, CC50/EC50): 0.6 | EC50 ([19]; Hepatitis C virus, Ava5): 94 ± 10 µM | EC90 ([19]; Hepatitis C virus, Ava5): > 100 µM | CC50 at 3 day [20]: 61 ± 2.9 µM

O=C(Nc1ncc([N+](=O)[O-])s1)c1ccccc1O [Tizoxanide]
MIC50 [1]: 0.5 µg/mL | MIC90 [1]: 1 µg/mL | MIC50 [2]: 8 µg/mL | MIC90 [2]: > 32 µg/mL | MIC50 [3, 21]: 0.25 µg/mL (≈ 0.943 µM) | MIC50 [4]: 2 µg/mL (≈ 7.54 µM) | MIC90 [4]: 4 µg/mL (≈ 15.1 µM) | MIC50 [5]: 0.5 µg/mL (≈ 1.89 µM) | MIC90 [5]: 2 µg/mL (≈ 7.54 µM) | MIC90 [6]: 16 µg/mL (≈ 60.3 µM) | MIC50 [7]: 2 µg/mL (≈ 7.54 µM) | MIC90 [7]: 4 µg/mL (≈ 15.1 µM) | Activity against anaerobic bacteria groups (summary in words) [7]: potent against all anaerobic bacteria groups except for Gram-positive anaerobic rods
